{"source": "patent US10899758B2", "about": "“Inhibitors of the menin-MLL interaction” (Vitae Pharmaceuticals, LLC, priority 2016, dated 2021)"}
{"target": "T1, menin/MLL binding (biotinylated wild-type or mutated menin and MLL-AF9 fusion protein) (Homo sapiens, UniProt O00255)", "T1 construct": "biotinylated (1) wild-type menin or (2) mutated menin (described in Nature (2012) Vol. 482, pp. 542-548); fused on or other part: Biotin attached chemically (Sulfo-NHS-Biotin); no fused second protein is printed for menin", "T1 sequence (O00255 1-459 limits assumed)": "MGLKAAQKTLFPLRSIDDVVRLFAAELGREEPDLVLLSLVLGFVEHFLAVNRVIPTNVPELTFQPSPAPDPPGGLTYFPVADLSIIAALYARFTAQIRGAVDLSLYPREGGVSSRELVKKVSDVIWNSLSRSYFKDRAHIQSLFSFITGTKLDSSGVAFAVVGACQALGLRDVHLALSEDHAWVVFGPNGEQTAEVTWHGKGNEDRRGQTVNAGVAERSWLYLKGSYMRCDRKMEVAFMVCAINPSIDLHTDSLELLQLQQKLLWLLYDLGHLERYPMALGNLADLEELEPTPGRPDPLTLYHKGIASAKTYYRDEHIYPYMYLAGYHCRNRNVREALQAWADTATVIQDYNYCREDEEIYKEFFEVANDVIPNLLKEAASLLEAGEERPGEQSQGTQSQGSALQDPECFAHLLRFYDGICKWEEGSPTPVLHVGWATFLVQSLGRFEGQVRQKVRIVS", "assay": "Assay 1 (Binding Assay): AlphaLISA menin/MLL binding", "details": "5 nM biotinylated menin, MLL-AF9-FLAG lysate", "protocol": "Potencies of inhibitor compounds against menin/MLL binding were assessed by AlphaLISA assay using biotinylated (1) wild-type menin or (2) mutated menin (described in Nature (2012) Vol. 482, pp. 542-548) and MLL-AF9 fusion protein bearing a FLAG epitope at its C-terminus. Menin proteins were expressed in E. coli and covalently modified with biotin using EZ-Link™ Sulfo-NHS-Biotin (ThermoFisher Cat. No. 21217) according to manufacturer's protocol. MLL1-1,396 fused to AF91-92 and the C-terminal FLAG peptide was expressed in HEK293 cells and used as a lysate cleared at 21,000×g for 10 min.\nCompounds (2 μL of solutions in DMSO) were dispensed in white 96-well half-area plates (Corning Cat. No. 3693) and incubated for 30 min at RT with 5 nM biotinylated menin and appropriate amount of MLL-AF9-FLAG lysate in 40 μL of 50 mM Tris-HCl buffer pH 7.4 containing 5% (v/v) DMSO, 50 mM NaCl, 0.01% (w/v) bovine serum albumin (BSA) and 1 mM DTT. To this incubation mixture, 40 μl of AlphaLISA anti-FLAG acceptor (PerkinElmer Cat. No. AL112C) and streptavidin donor (PerkinElmer Cat. No. 6760002) beads (10 μg/mL each) was added and incubation continued at RT for 60 min. Alpha (amplified luminescent proximity homogeneous assay) signal was measured on an Envision multi-label plate reader at the end of the incubation. All steps were conducted under dim fluorescent light.\nThese percent inhibition values were regressed against compound concentrations in the assay using four parameter logit non-linear curve fitting (XLFit, IDBS). The IC50 values were derived from the curve fitting as inflection points on the dose-response curves and are set out in Table 14 below.", "units": {"IC50": "nM"}}
{"smiles": "CC(C)N(C)C(=O)c1cc(F)ccc1-n1cc([C@H]2CC[C@H](N3CC[C@@H](CO)C3)CC2)c2ccncc21", "note": "[Example 102, 5-fluoro-2-(3-(trans-4-((R)-3-(hydroxymethyl)pyrrolidin-1-yl)cyclohexyl)-1H-pyrrolo [2,3-c]pyridin-1-yl)-N-isopropyl-N-methylbenzamide]", "IC50": "< 100"}
{"smiles": "Fc1ccc(-n2cc(C3CCN(CC4CCOCC4)CC3)c3ncncc32)cc1", "note": "[Example 65, 5-(4-fluorophenyl)-7-(1-((tetrahydro-2H-pyran-4-yl)methyl)piperidin-4-yl)-5H-pyrrolo[3,2-d]pyrimidine]", "IC50": "≥ 1000"}
{"smiles": "CC(C)N(C)C(=O)c1cc(F)ccc1-n1cc(C2CCC3(CC2)CNC3)c2ccncc21", "note": "[Example 51, 2-(3-(2-azaspiro[3.5]nonan-7-yl)-1H-pyrrolo[2,3-c]pyridin-1-yl)-5-fluoro-N-isopropyl-N-methylbenzamide]", "IC50": "100 to 1000"}
{"smiles": "CC(C)N(C)C(=O)c1cc(F)ccc1-n1c(=O)n(C2CCN(CC3CCCCC3)CC2)c2ccncc21", "note": "[Example 81, 2-(1-(1-(cyclohexylmethyl)piperidin-4-yl)-2-oxo-1,2-dihydro-3H-imidazo[4,5-c]pyridin-3-yl)-5-fluoro-N-isopropyl-N-methylbenzamide]", "IC50": "< 100"}
{"smiles": "CC(C)N(C)C(=O)c1cc(F)ccc1-n1c(=O)n(C2CCN(Cc3ccc(F)cc3)CC2)c2ccncc21", "note": "[Example 83, 5-fluoro-2-(1-(1-(4-fluorobenzyl)piperidin-4-yl)-2-oxo-1,2-dihydro-3H-imidazo[4,5-c]pyridin-3-yl)-N-isopropyl-N-methylbenzamide]", "IC50": "100 to 1000"}
{"smiles": "CC(C)N(C)C(=O)c1cc(F)ccc1-n1cc(C2CCN(C)CC2)c2ccncc21", "note": "[Example 17, 5-fluoro-N-isopropyl-N-methyl-2-(3-(1-methylpiperidin-4-yl)-1H-pyrrolo[2,3-c]pyridin-1-yl)benzamide]", "IC50": "100 to 1000"}
{"smiles": "CC(C)N(C)C(=O)c1cc(F)ccc1-n1cc([C@H]2CC[C@@H](N3CCC(F)(F)CC3)CC2)c2ccncc21", "note": "[Example 111, 2-(3-(cis-4-(4,4-difluoropiperidin-1-yl)cyclohexyl)-1H-pyrrolo[2,3-c]pyridin-1-yl)-5-fluoro-N-isopropyl-N-methylbenzamide]", "IC50": "100 to 1000"}
{"smiles": "CC(C)N(C)C(=O)c1cc(F)ccc1-n1c(=O)n(C2CCN(Cc3ccc4[nH]c(=O)[nH]c4c3)CC2)c2ccncc21", "note": "[Example 79, 5-fluoro-N-isopropyl-N-methyl-2-(2-oxo-1-(1-((2-oxo-2,3-dihydro-1H-benzo[d]imidazol-5-yl)methyl)piperidin-4-yl)-1,2-dihydro-3H-imidazo[4,5-c]pyridin-3-yl)benzamide]", "IC50": "≥ 1000"}
{"smiles": "CC(C)N(C)C(=O)c1cc(F)ccc1-n1cc(C2CCN(CCc3cccc(C#N)c3)CC2)c2ccncc21", "note": "[Example 25, 2-(3-(1-(3-cyanophenethyl)piperidin-4-yl)-1H-pyrrolo[2,3-c]pyridin-1-yl)-5-fluoro-N-isopropyl-N-methylbenzamide]", "IC50": "< 100"}
{"smiles": "Fc1ccc(-n2cc(C3CCN(Cc4ccc5[nH]ccc5c4)CC3)c3ncncc32)cc1", "note": "[Example 69, 7-(1-((1H-indol-5-yl)methyl)piperidin-4-yl)-5-(4-fluorophenyl)-5H-pyrrolo[3,2-d]pyrimidine]", "IC50": "100 to 1000"}
{"smiles": "CC(=O)Nc1ccc(CN2CCC(c3cn(-c4ccc(F)cc4C(=O)N(C)C(C)C)c4cnccc34)CC2)cc1", "note": "[Example 22, 2-(3-(1-(4-acetamidobenzyl)piperidin-4-yl)-1H-pyrrolo[2,3-c]pyridin-1-yl)-5-fluoro-N-isopropyl-N-methylbenzamide]", "IC50": "< 100"}
{"smiles": "CC(C)N(C)C(=O)c1cc(F)ccc1-n1cc([C@H]2CC[C@@H](N3CCC[C@@H]3CO)CC2)c2ccncc21", "note": "[Example 101, 5-fluoro-2-(3-(cis-4-((R)-2-(hydroxymethyl)pyrrolidin-1-yl)cyclohexyl)-1H-pyrrolo [2,3-c]pyridin-1-yl)-N-isopropyl-N-methylbenzamide]", "IC50": "< 100"}
